Assays:
Abeta 1-42 = assay: Cellular αLisa assay in SKNBE2 cells, Abeta 1-42; format: cell-based, human; conditions: incubated for 18 hours; for IC50: Homo sapiens, SKNBE2, 18 h, read-out: Cellular αLisa assay in SKNBE2 cells Abeta 42 pIC50 (converted)
Method in brief: (§1)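 Human neuroblastoma SKNBE2 cells expressing wild-type hAPP695 were incubated with compound for 18 hours. Secreted Abeta total and Abeta 1-42 in medium were quantified by sandwich αLisa: biotinylated AbN/25 on streptavidin donor beads with Ab4G8 (total) or cAb42/26 (1-42) acceptor beads. Light emission read after 1 hour (ex 650 nm, em 615 nm).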

Abeta total = assay: Cellular αLisa assay in SKNBE2 cells, Abeta total; format: cell-based, human; conditions: incubated for 18 hours; for IC50: Homo sapiens, SKNBE2, 18 h, read-out: Cellular αLisa assay in SKNBE2 cells Abetatotal pIC50 (converted)
Method in brief: as §1

Aβtotal = assay: Demonstration of in vivo efficacy, brain Aβtotal lowering (ELISA); conditions: mouse brain, 30 mpk
Source text: (§2) To determine whether acute administration of an Aβ42 peptide lowering agent would reduce Aβ peptide levels in vivo, non-transgenic rodents, e.g. mice or rats were used. Animals treated with the Aβ peptide lowering agent were examined and compared to those untreated or treated with vehicle and brain levels of soluble Aβ42 and total Aβ were quantitated by standard techniques, for example, using ELISA.
(§3) A typical protocol for measuring Aβ42 lowering in vivo is shown but it is only one of many variations that could be used to optimize the levels of detectable Aβ. For example, Aβ peptide lowering compounds were formulated in 20% hydroxypropyl 3 cyclodextrin. The Aβ peptide lowering agents were administered as a single oral dose (p.o.) or a single subcutaneous dose (s.c.) to overnight fasted animals. After a certain time, usually 2 or 4 h (as indicated in Table 19), the animals were sacrificed and Aβ42 levels were analysed.
(§4) Blood was collected by decapitation and exsanguinations in EDTA-treated collection tubes. Blood was centrifuged at 1900 g for 10 minutes (min) at 4° C. and the plasma recovered and flash frozen for later analysis. The brain was removed from the cranium and hindbrain. The cerebellum was removed and the left and right hemisphere were separated. The left hemisphere was stored at −18° C. for quantitative analysis of test compound levels. The right hemisphere was rinsed with phosphate-buffered saline (PBS) buffer and immediately frozen on dry ice and stored at −80° C. until homogenization for biochemical assays.
(§5) Mouse brains from non-transgenic animals were resuspended in 8 volumes of 0.4% DEA (diethylamine)/50 mM NaCl containing protease inhibitors (Roche-11873580001 or 04693159001) per gram of tissue, e.g. for 0.158 g brain, add 1.264 ml of 0.4% DEA. All samples were homogenized in the FastPrep-24 system (MP Biomedicals) using lysing matrix D (MPBio #6913-100) at 6 m/s for 20 seconds. Homogenates were centrifuged at 221.300×g for 50 min. The resulting high speed supernatants were then transferred to fresh eppendorf tubes. Nine parts of supernatant were neutralized with 1 part 0.5 M Tris-HCl pH 6.8 and used to quantify Aβtotal and Aβ42.
(§6) To quantify the amount of Aβtotal and Aβ42 in the soluble fraction of the brain homogenates, Enzyme-Linked-Immunosorbent-Assays were used. Briefly, the standards (a dilution of synthetic Aβ1-40 and Aβ1-42, Bachem) were prepared in 1.5 ml Eppendorf tube in Ultraculture, with final concentrations ranging from 10000 to 0.3 pg/ml. The samples and standards were co-incubated with HRPO-labelled N-terminal antibody for Aβ42 detection and with the biotinylated mid-domain antibody 4G8 for Aβtotal detection. […] The plate was allowed to incubate overnight at 4° C. in order to allow formation of the antibody-amyloid complex. Following this incubation and subsequent wash steps the ELISA for Aβ42 quantification was finished by addition of Quanta Blu fluorogenic peroxidase substrate according to the manufacturer's instructions (Pierce Corp., Rockford, Ill.). A reading was performed after 10 to 15 min (excitation 320 nm/emission 420 nm).
For Aβtotal detection, a Streptavidine-Peroxidase-Conjugate was added, followed 60 min later by an additional wash step and addition of Quanta Blu fluorogenic peroxidase substrate according to the manufacturer's instructions (Pierce Corp., Rockford, Ill.). A reading was performed after 10 to 15 min (excitation 320 nm/emission 420 nm).

Aβ42 = assay: Demonstration of in vivo efficacy, brain Aβ42 lowering (ELISA); conditions: mouse brain, 30 mpk
Source text: as §2, §3, §4, §5, §6

[1] = biological target: recombinant BACE1 protein (Homo sapiens, UniProt P56817); assay: Biochemical FRET based assay; conditions: recombinant BACE1 1 μg/ml, 120 minutes at room temperature, pH 5.0; for IC50: read-out: Biochemical FRET based assay pIC50 (converted)
Method in brief: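 Recombinant BACE1 (1 μg/ml final) was incubated 120 minutes at room temperature with […] Mca/Dnp-labelled 13-mer APP Swedish-mutant peptide in 40 mM citrate pH 5.0, 0.04% PEG, 4% DMSO, with or without compound. Cleavage was measured as fluorescence (ex 320/em 405 nm), given as RFU difference between T120 and T0.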

P-gp = biological target: T1, P-gp (Homo sapiens, UniProt P08183); assay: Transepithelial transport of test compounds through LLC-MDR1 monolayers; format: in vitro ADME; conditions: pig, LLC-PK1; for Papp A→B at 120 min, 1 μM: read-out: A to B (Apparent Permeability, Papp); for Papp B→A at 120 min, 1 μM: read-out: B to A (Apparent Permeability, Papp)
T1 construct: expressed in transfected cells; host or cells: LLC-PK1 cells stably transduced with MDR1 (LLC-MDR1)
Protocol: Brief Assay Description for the Measurement of Transepithelial Transport of Test Compounds Through LLC-MDR1 Monolayers
The purpose of this assay was to assess both the in vitro passive permeability of test compounds and their ability to be transported substrates of P-gp using LLC-PK1 cells stably transduced with MDR1 in a trans-well system. The positive control for transport was ^3H-digoxin (30 nM) and the positive control inhibitor was GF120918 (5 μM). The marker compound for low permeability was ^14C-Mannitol (1 μM). The test compound concentration was 1 μM.
The integrity of the cellular monolayer was assessed in each incubation well through the inclusion of the fluorescent, low permeability marker compound, Fluorescein.
In detail, LLC-MDR1 cells were seeded on 24-well cell culture inserts (Millicell®-PCF, 0.4 μm, 13 mm diameter, 0.7 cm^2) at 400,000 cells/cm^2. Cell culture medium consisted of Medium 199 supplemented with 10% Foetal Bovine Serum (FBS) and 100 U/ml Penicillin/streptomycin and was replaced the day after seeding and the day before the experiment. The transport experiment was performed 5 days after seeding. On the day of the experiment, solutions of the test compounds were applied to the apical or basolateral side of the monolayers to assess transport in the A to B and B to A directions, respectively. The medium used in the assay was (OPTI-MEM (1×) (GIBCO) with 1 w/v % Bovine Serum Albumin. Inserts were incubated at 37° C. in a humidified incubator containing 5% CO2. Samples from the acceptor and donor compartments were collected after an incubation time of 120 min, to assess the permeability and to allow estimation of the test compound recovery during the experiment, respectively. Transport experiments were performed in triplicate. Absolute test compound concentrations were measured using LC-MS/MS and quantified via a calibration curve.

recombinant BACE1 protein, sequence (P56817 46-501): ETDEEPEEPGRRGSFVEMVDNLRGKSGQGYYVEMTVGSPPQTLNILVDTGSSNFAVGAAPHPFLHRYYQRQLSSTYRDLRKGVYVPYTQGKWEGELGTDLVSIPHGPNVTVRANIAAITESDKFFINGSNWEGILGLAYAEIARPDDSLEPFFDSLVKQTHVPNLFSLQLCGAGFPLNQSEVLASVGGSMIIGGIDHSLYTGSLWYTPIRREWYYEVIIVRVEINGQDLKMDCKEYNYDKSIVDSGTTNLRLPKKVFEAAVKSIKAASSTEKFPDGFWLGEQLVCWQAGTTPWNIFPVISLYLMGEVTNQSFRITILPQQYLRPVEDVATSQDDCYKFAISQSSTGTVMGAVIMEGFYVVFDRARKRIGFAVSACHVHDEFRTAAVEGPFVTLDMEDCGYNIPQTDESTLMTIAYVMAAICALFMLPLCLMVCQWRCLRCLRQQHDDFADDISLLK
T1 sequence (P08183 whole entry): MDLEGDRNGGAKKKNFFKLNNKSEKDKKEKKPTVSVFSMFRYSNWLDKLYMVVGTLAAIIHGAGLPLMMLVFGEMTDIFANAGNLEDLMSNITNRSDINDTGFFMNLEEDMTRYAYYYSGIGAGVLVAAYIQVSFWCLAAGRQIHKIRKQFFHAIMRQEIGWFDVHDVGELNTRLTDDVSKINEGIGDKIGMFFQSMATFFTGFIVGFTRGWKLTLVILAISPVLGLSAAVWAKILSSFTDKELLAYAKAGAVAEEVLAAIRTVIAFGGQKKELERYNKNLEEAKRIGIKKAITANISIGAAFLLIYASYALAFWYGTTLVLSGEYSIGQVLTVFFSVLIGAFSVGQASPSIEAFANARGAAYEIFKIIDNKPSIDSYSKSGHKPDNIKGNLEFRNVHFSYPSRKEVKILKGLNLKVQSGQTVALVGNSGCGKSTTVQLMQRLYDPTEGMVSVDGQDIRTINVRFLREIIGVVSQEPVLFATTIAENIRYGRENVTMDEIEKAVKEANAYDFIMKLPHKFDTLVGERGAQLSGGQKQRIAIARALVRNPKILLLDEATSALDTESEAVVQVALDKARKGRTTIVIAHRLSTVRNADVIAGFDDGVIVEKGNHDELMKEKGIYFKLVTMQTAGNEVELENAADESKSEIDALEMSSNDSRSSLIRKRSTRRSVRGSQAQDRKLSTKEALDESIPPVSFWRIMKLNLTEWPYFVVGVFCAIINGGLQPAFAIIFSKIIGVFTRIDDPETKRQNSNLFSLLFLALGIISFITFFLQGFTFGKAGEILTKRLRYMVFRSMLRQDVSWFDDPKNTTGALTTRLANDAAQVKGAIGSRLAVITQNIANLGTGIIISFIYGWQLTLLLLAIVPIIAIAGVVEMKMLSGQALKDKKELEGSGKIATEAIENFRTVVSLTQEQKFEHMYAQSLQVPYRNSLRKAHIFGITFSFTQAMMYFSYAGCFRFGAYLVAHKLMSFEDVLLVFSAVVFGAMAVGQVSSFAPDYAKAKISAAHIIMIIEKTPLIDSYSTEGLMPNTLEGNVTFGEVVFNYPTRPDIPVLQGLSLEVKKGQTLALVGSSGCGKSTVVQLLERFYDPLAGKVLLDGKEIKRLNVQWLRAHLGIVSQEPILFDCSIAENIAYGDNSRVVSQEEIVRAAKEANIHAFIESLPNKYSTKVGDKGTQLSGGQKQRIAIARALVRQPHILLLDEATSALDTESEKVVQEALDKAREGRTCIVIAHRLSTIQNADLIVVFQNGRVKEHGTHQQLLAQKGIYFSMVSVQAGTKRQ

Compound	Cellular αLisa assay in SKNBE2 cells Abeta 42 pIC50 (Abeta 1-42)	Cellular αLisa assay in SKNBE2 cells Abetatotal pIC50 (Abeta total)	Aβtotal (% Ctrl)_Mean (Aβtotal; s.c., 4 h) [% Ctrl]	Aβ42 (% Ctrl)_Mean (Aβ42; s.c., 4 h) [% Ctrl]	IC50 [1] [nM]	melting point [°C]	IC50 (Abeta 1-42) [nM]	IC50 (Abeta total) [nM]	Aβtotal (% Ctrl)_Mean (Aβtotal; s.c., 2 h) [% Ctrl]	Aβ42 (% Ctrl)_Mean (Aβ42; s.c., 2 h) [% Ctrl]	further results
CC1(c2cc(NC(=O)c3ncc(Cl)cc3Cl)ccc2F)N=C(N)COC1F (single isomer, unassigned) [Compound 126]	8.06	8.09	32	27	36.3	94.6					Aβtotal (% Ctrl)_Mean (Aβtotal; p.o., 4 h): 31 % Ctrl; Aβ42 (% Ctrl)_Mean (Aβ42; p.o., 4 h): 26 % Ctrl
CC1(c2cc(NC(=O)c3ccc(Cl)cn3)ccc2F)N=C(N)COC1F (single isomer, unassigned) [Compound 134]	8.39	8.42									Papp A→B at 120 min, 1 μM (P-gp): 8.9 ×10⁻⁶ cm/s; Papp B→A at 120 min, 1 μM (P-gp): 17.7 ×10⁻⁶ cm/s; Aβtotal (% Ctrl)_Mean (Aβtotal; p.o., 4 h): 35 % Ctrl; Aβ42 (% Ctrl)_Mean (Aβ42; p.o., 4 h): 27 % Ctrl
N#Cc1cnc(C(=O)Nc2ccc(F)c([C@@]3(C4CC4)N=C(N)CO[C@@H]3F)c2)c(Cl)c1 [Compound 218]					126		851	832	90	99	
COc1cnc(C(=O)Nc2cccc(C3(C4CC4)N=C(N)COC3C(F)(F)F)c2)cn1 (centres unmarked) [Compound 228]	7.31	7.35									Aβtotal (% Ctrl)_Mean (Aβtotal; p.o., 2 h): 79 % Ctrl; Aβ42 (% Ctrl)_Mean (Aβ42; p.o., 2 h): 99 % Ctrl; Biochemical FRET based assay pIC50 [1]: 6.67
NC1=N[C@@](c2cc(NC(=O)c3ncc(Cl)cc3F)ccc2F)(C2CC2)[C@@H](F)OC1 [Compound 219]					93.3		309	282	86	95	
COc1cnc(C(=O)Nc2ccc(F)c([C@@]3(C4CC4)N=C(N)CO[C@@H]3F)c2)cn1 [Compound 216]								631			Papp A→B at 120 min, 1 μM (P-gp): 12 ×10⁻⁶ cm/s; Papp B→A at 120 min, 1 μM (P-gp): 12 ×10⁻⁶ cm/s; Aβtotal (% Ctrl)_Mean (Aβtotal; p.o., 4 h): 39 % Ctrl; Aβ42 (% Ctrl)_Mean (Aβ42; p.o., 4 h): 45 % Ctrl
COc1cncc(-c2cccc(C3(C)COCC(N)=N3)c2)c1 (single isomer, unassigned) [Compound 8]			98	92	2040	79.5	214	178			
C[C@]1(c2cc(NC(=O)c3ncc(Cl)cc3Cl)ccc2F)N=C(N)CO[C@H]1C(F)(F)F [Compound 167]					34.7	214.23	7.59	7.59			Aβtotal (% Ctrl)_Mean (Aβtotal; p.o., 2 h): 78 % Ctrl; Aβ42 (% Ctrl)_Mean (Aβ42; p.o., 2 h): 95 % Ctrl
C[C@@]1(c2cccc(-c3cc(Cl)cc(Cl)c3)c2)COCC(N)=N1 [Compound 52]	6.68	6.66							114	68	Biochemical FRET based assay pIC50 [1]: 6.06
CC1(c2cccc(-c3cncc(C#N)c3)c2)N=C(N)COC1C(F)(F)F (single isomer, unassigned) [Compound 204]	7.05	7.06	103	113	363						
CC1(c2cccc(NC(=O)c3ccc(Cl)cn3)c2)COC(F)(C(F)(F)F)C(N)=N1 (racemic) [Compound 9, rac-N-{3-[5-amino-6-fluoro-3-methyl-6-(trifluoromethyl)-3,6-dihydro-2H-1,4-oxazin-3-yl]phenyl}-5-chloropyridine-2-carboxamide]			101	87	3470	193.3	> 10000	8510			
N#Cc1ccc(C(=O)Nc2cccc([C@@]3(C4CC4)N=C(N)CO[C@@]3(F)C(F)(F)F)c2)nc1 [Compound 199, (2S,3R)—N-{3-[5-amino-3-cyclopropyl-2-fluoro-2-(trifluoromethyl)-3,6-dihydro-2H-1,4-oxazin-3-yl]phenyl}-5-cyanopyridine-2-carboxamide]					14.8	196.12	16.6	17	45	64	
CC1(c2cc(-c3cncnc3)c(F)cc2F)COCC(N)=N1 (racemic) [Compound 59]	6.44	6.417							95	114	Biochemical FRET based assay pIC50 [1]: 5.36
CC1(c2cccc(-c3cncnc3)c2)N=C(N)COC1(F)C(F)(F)F (single isomer, unassigned) [Compound 117]	6.59	6.55			437				86	95	
CC1(c2cccc(NC(=O)c3ccc(C(F)(F)F)cn3)c2)COCC(N)=N1 (racemic) [Compound 14]	7.49	7.56	116	107							Biochemical FRET based assay pIC50 [1]: 6.28
